Data taken from patent publication US20090105349A1, “ANDROGEN MODULATORS” (WARNER-LAMBERT COMPANY LLC, priority 2004, published 2009).
Positions count from the first letter of the chain named. Read-outs that look alike come from different tables or passages of the source.

Tests used:
[1] = tested on: male C3H/HeN mice (telogen to anagen conversion); assay type: in vivo
Description: While this model is a significant improvement over the telogen conversion assay as a model for human baldness, it suffers from a number of practical disadvantages. The macaques are expensive, relatively rare, labor intensive to maintain, and require long wash out periods between testing. […] Thus, the model relates to a modification of the existing telogen conversion assay. Male C3H/HeN mice approximately 7 weeks old are utilized. These animals are also uniformly in telogen, like their female counterparts. However, once shaven, the androgens inherently present in these male mice inhibit the conversion of the hair follicles to the anagen phase. An anti-androgen will block this androgenic effect and the follicles will convert to anagen, like their female counterparts.
The compounds shown below in Table IV were submitted for further testing utilizing the modified telogen conversion assay, described above. The testing was carried out in the following manner.
Male C3H/HeN mice, 6 to 7 weeks old (Charles River Laboratories, Raleigh, N.C.) were used for the study. Fur was clipped from the dorsal region of the mice prior to initiation of the study. Only mice with pink skin, a visual indication of the telogen phase, were selected for inclusion in the study.
A second group of animals received only the vehicle to serve as a control. Treatments were applied twice daily for 4 weeks.
The hair growth response was quantified by recording, for each animal, the day on which signs of hair growth first appeared over the treated area. The first sign of anagen was the darkening of skin color as melanocytes in the follicles started to synthesize melanin in preparation for the production of pigmented hairs. […] The day on which anagen was initiated in 50% of the test animals for both the treatment group and the vehicle group is reported below in Table IV.

[2] = target: T1, androgen receptor in MDA-MB453-MMTV clone 54-19 cells (Homo sapiens, UniProt P10275); test: AR antagonist cell assay (MMTV-luciferase reporter); assay type: cell-based
T1 sequence (P10275 1-920 Q868H): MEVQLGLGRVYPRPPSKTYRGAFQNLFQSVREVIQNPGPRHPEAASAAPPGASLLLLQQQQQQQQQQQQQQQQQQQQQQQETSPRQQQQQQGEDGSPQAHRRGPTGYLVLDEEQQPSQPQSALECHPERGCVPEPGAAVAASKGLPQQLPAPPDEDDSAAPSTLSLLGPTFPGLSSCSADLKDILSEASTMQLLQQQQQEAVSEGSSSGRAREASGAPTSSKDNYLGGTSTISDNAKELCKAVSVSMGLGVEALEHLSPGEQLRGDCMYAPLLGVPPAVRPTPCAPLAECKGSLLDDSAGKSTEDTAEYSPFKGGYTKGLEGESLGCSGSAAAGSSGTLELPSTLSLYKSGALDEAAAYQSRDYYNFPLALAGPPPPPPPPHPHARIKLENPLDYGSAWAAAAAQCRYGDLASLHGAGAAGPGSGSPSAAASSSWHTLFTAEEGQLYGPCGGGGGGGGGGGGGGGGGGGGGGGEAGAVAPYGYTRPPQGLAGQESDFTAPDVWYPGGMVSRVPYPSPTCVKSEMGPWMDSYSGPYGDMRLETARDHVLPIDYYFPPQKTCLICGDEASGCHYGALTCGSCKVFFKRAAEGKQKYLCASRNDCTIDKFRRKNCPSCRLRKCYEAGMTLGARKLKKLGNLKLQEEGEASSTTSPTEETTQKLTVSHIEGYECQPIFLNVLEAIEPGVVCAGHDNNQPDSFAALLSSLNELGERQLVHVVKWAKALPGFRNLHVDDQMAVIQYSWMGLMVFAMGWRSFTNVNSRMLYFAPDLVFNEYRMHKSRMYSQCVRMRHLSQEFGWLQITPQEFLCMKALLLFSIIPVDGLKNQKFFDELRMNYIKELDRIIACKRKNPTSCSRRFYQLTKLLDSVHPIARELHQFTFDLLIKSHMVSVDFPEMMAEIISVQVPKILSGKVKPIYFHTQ

[3] = target: T2, hAR (human androgen receptor) (Homo sapiens, UniProt P10275); test: Competitive hAR binding assay with 3H-DHT tracer
T2 construct: made in house; host or cells: baculovirus/Sf9 insect cells (crude extract)
T2 sequence (P10275 1-920): T1 sequence (P10275 1-920 Q868H) with H868Q

[4] = MDA-MB453-MMTV clone 54-19, inhibition of DHT induced luciferase, 17 hr; mean of multiple tests; read-out: AR Cell IC50
[5] = baculovirus/Sf9 hAR extract, 1 nM 3H-DHT, one hour at 4° C, mean of multiple tests, read-out: AR Binding IC50
[6] = read-out: AR Cell IC50; MDA-MB453-MMTV clone 54-19, inhibition of DHT induced luciferase, 17 hr; mean of multiple tests

Compound | Anagen-Trx (day on which anagen was initiated in 50% of the test animals) ([1]; 1 % w/v, Vehicle #2, topical twice daily for 4 weeks) [days] | IC50 [2, 4] [nM] | Anagen-Trx (day on which anagen was initiated in 50% of the test animals) ([1]; mouse, in vivo) [days] | IC50 [3, 5] [nM] | IC50 [2, 6] [nM] | IC50 [3] [nM]
N#Cc1ccc(Oc2ccccc2F)c(Cl)c1 [Example 27, 3-Chloro-4-(2-fluoro-phenoxy)-benzonitrile] | >35 | 46 |  |  |  | 
COc1cc(F)ccc1Oc1ccc(C#N)cc1Cl [Example 29, 3-Chloro-4-(4-fluoro-2-methoxy-phenoxy)-benzonitrile] |  |  | 25 | 135 | 67 | 
COc1cccc(Oc2ccc(C#N)c(C(F)(F)F)c2)c1OC [Example 91, 4-(2,3-Dimethoxy-phenoxy)-2-trifluoromethyl-benzonitrile] |  |  | 20 | 272 | 28 | 
C=CCc1ccccc1Oc1ccc(C#N)c(C(F)(F)F)c1 [Example 105, 4-(2-Allyl-phenoxy)-2-trifluoromethyl-benzonitrile] |  | > 1000 |  |  |  | 82
CCN(CC)C(=O)c1ccccc1Oc1ccc(C#N)c(C(F)(F)F)c1 [Example 106, 2-(4-Cyano-3-trifluoromethyl-phenoxy)-N,N-diethyl-benzamide] |  | > 1000 |  | 175 |  | 
N#Cc1ccc(Oc2ccccc2C(F)(F)F)cc1C(F)(F)F [Example 108, 2-Trifluoromethyl-4-(2-trifluoromethyl-phenoxy)-benzonitrile] |  | > 1000 |  |  |  | 57
CC(C)Oc1ccccc1Oc1ccc(C#N)c(C(F)(F)F)c1 [Example 110, 4-(2-Isopropoxy-phenoxy)-2-trifluoromethyl-benzonitrile] |  | 206 |  | 218 |  | 
N#Cc1ccc(Oc2ccc(F)cc2F)cc1C(F)(F)F [Example 115, 4-(2,4-Difluoro-phenoxy)-2-trifluoromethyl-benzonitrile] |  |  |  |  | 56 | 128
COc1c(O)cccc1Oc1ccc(C#N)c(C(F)(F)F)c1 [Example 116, 4-(3-Hydroxy-2-methoxy-phenoxy)-2-trifluoromethyl-benzonitrile] |  |  |  |  | 3 | 30
COc1cc(Oc2ccccc2C)ccc1C#N [Example 117, 2-Methoxy-4-o-tolyloxy-benzonitrile] |  | 26 |  | 53 |  | 
Cc1ccc(F)c(Oc2ccc(C#N)c(C(F)(F)F)c2)c1F [Example 118, 4-(2,6-Difluoro-3-methyl-phenoxy)-2-trifluoromethyl-benzonitrile] |  | 249 |  |  |  | 76
CC(O)c1cc(F)ccc1Oc1ccc(C#N)c(C(F)(F)F)c1 (stereo not drawn) [Example 119, 4-[4-Fluoro-2-(1-hydroxy-ethyl)-phenoxy]-2-trifluoromethyl-benzonitrile] |  | 458 |  | 279 |  | 
CC(=O)c1cc(F)ccc1Oc1ccc(C#N)c(C(F)(F)F)c1 [Example 120, 4-(2-Acetyl-4-fluoro-phenoxy)-2-trifluoromethyl-benzonitrile] |  | 367 |  | 222 |  | 
N#Cc1ccc(Oc2c(F)cccc2F)cc1C(F)(F)F [Example 121, 4-(2,6-Difluoro-phenoxy)-2-trifluoromethyl-benzonitrile] |  |  |  |  | 17 | 63
N#CCOc1ccccc1Oc1ccc(C#N)c(C(F)(F)F)c1 [Example 123, 4-(2-cyanomethoxy-phenoxy)-2-trifluoromethyl-benzonitrile] |  |  |  | 141 | 54 | 
N#Cc1ccc(Oc2c(F)cccc2F)c(Cl)c1 [Example 124, 3-Chloro-4-(2,6-difluoro-phenoxy)-benzonitrile] |  |  |  |  | 60 | 45
COc1cc(C#N)ccc1Oc1ccccc1C [Example 125, 3-Methoxy-4-o-tolyloxy-benzonitrile] |  | 50 |  | 433 |  | 
